Test results reported in article PMC10861852, “Loss of activation by GABA in vertebrate delta ionotropic glutamate receptors” (Proceedings of the National Academy of Sciences of the …, 2024).
Where a chain is given by its changes, count along the chain named. Read-outs that look alike come from different tables or passages of the source.

Experiments:
AcaGluD = molecular target: T1, AcaGluD (Acanthaster planci, UniProt A0A8B7XXR5); assay: Two-electrode voltage clamp, ligand-gated currents in oocytes; type: cell-based; details: for inhibition of GABA-gated current: coapplied with ~EC30 GABA concentration
T1 sequence (A0A8B7XXR5 24-958): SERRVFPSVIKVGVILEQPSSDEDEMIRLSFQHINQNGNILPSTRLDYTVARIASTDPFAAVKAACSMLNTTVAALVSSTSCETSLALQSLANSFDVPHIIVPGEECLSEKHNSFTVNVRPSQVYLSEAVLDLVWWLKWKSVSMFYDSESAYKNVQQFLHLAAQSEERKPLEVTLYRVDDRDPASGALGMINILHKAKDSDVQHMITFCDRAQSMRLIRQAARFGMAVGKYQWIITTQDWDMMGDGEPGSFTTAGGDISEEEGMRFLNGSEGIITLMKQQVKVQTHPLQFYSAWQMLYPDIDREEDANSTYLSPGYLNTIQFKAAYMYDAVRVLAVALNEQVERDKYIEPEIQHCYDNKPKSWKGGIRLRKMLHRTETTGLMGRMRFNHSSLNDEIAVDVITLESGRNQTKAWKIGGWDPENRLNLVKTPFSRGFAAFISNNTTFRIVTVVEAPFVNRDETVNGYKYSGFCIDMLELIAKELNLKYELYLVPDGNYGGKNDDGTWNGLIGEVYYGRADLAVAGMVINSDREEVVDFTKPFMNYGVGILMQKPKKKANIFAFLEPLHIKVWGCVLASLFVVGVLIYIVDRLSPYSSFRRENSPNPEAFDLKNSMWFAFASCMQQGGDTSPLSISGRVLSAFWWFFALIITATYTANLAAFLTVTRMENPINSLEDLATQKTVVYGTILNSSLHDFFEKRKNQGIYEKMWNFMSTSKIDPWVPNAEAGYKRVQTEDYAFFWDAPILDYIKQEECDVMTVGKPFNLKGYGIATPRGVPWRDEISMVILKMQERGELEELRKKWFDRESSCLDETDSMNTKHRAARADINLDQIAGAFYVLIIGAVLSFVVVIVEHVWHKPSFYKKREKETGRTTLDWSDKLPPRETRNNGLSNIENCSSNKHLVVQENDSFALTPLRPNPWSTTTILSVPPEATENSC

RatGluA2 AMPA receptors = RatGluA2 AMPA receptors (Rattus norvegicus, UniProt P19491); assay: Two-electrode voltage clamp, glutamate-gated current in oocytes expressing RatGluA2 and human TARPγ2; type: cell-based; details: n = 5
From the text: (dots) and resulting means (columns).

RatGluD2^Lc^-9x = molecular target: T2, RatGluD2^Lc^-9x (Rattus norvegicus, UniProt Q63226, A654T/A686S/D753Q/K694R/N720P/N763K/P806D/Q786M/R787V/Y613F); assay: Two-electrode voltage clamp, responses to ligands in mutant-expressing oocytes; type: cell-based; details: pentamidine 100 μM
T2 construct: expressed in transfected cells; host or cells: Xenopus laevis oocytes injected with mRNA
From the text: If the 10 mutations discussed above drove the loss of function in vertebrate delta iGluRs, one might expect that the latter could be “reawakened” via active invertebrate delta iGluR-like mutations here. We therefore engineered mutant RatGluD2 iGluRs to contain at these positions the equivalent residues from starfish delta iGluRs. These mutants were RatGluD2^5x, containing Y613F, A686S, K694R, N720P, and P806D substitutions (pink in Fig. 6A), and RatGluD2^9x, additionally containing N763K, D753Q, Q786M, and R787V (cyan in Fig. 6A).
Fig. 6. AcaGluD-like mutations alter RatGluD2 receptor function. (A) D-serine bound RatGluD2 from X-ray structure PDB:2v3u ([13]). Selected amino acid residues are indicated, colored, shown as sticks, and labeled 5×, 9×, 10×, and/or Lc according to the multiple mutants they were incorporated into. 10× mutant included 10×, 9×, and 5× positions. 9× included 9× and 5×. 5× included only 5×. […] (B–E) Example current responses to different neurotransmitter ligands (30 mM) and to pore blocker pentamidine (Pent, 100 μM) in oocytes expressing indicated RatGluD2 mutants. The dashed line indicates zero current baseline. (F) Individual (dots) and mean (columns) responses to ligands in oocytes expressing indicated RatGluD2 mutants (n = 4 to 5).

S713A AcaGluD = assay: Two-electrode voltage clamp, GABA-gated current before/after concanavalin A treatment; type: cell-based, Acanthaster planci; details: concanavalin A 10 μM, 30 mM GABA
From the text: (§1) Fig. 5. RatGluD2-like substitutions impair the ligand-gated activity of AcaGluD receptors. (A) Ligand-gated currents in oocytes expressing indicated mutant AcaGluD receptors or uninjected oocytes. (B) Maximum current amplitude (“Imax”, Upper) and relative ligand-gated current amplitude (“I/Imax”, Lower) and at wild-type (WT) and mutant AcaGluD receptors (mean ± SEM, n = 3 to 5). (C) Immunolabeling c-Myc tag in AcaGluD C-terminal. Upper, example micropgraphs. Lower, […] fluorescence units (RFU) plotted against relative radial distance, peaking at the oocyte surface. White scale bars, 100 μm. (D) AlphaFold model of two adjacent AcaGluD LBDs (rear LBD faded). Selected amino acid residues colored and shown as sticks. Magenta, drastic loss of function; cyan, moderate loss of function. […] (E) Upper, example, and Lower, summarized current responses to 30 mM GABA (“IGABA”) in WT or mutant AcaGluD-expressing oocytes before or after treatment with concanavalin A (“ConA”, 10 μM).

D825P AcaGluD = assay: as above; type: cell-based, Acanthaster planci; details: concanavalin A 10 μM, 30 mM GABA
From the text: as §1

F640Y AcaGluD = assay: as above; type: cell-based, Acanthaster planci; details: concanavalin A 10 μM, 30 mM GABA
From the text: as §1

R721K AcaGluD = assay: as above; type: cell-based, Acanthaster planci; details: concanavalin A 10 μM, 30 mM GABA
From the text: as §1

RatGluD2^Lc = molecular target: T3, RatGluD2^Lc (Rattus norvegicus, UniProt Q63226, A654T); assay: Two-electrode voltage clamp, inhibition of constitutive current in oocytes; details: each n = 4
T3 sequence (Q63226 24-1007 A654T): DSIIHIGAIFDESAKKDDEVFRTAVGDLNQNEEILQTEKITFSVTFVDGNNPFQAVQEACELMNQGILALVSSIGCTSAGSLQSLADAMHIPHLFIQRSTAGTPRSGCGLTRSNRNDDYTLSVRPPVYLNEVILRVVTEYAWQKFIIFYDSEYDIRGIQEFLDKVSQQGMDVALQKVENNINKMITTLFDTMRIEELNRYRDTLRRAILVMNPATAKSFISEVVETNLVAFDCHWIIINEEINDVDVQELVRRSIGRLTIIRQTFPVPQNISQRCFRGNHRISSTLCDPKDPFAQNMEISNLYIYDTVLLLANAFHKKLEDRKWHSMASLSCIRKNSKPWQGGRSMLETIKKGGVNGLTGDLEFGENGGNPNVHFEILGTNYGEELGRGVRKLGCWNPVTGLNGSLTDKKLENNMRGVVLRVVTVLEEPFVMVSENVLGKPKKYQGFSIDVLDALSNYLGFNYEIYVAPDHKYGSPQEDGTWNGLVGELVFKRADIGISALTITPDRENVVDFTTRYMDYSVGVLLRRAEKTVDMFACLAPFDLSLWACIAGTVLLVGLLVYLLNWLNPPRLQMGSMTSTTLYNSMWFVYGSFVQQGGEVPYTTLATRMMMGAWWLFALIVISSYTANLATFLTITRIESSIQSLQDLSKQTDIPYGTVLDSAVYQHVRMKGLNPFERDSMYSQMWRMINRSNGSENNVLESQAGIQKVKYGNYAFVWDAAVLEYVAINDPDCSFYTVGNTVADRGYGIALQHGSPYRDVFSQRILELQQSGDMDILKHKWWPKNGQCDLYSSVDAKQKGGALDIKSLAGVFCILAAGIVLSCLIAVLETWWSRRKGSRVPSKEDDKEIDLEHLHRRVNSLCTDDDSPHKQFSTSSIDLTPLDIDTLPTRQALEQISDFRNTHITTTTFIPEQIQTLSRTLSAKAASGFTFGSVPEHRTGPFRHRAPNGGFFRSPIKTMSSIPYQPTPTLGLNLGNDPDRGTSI
From the text: (C) Left panels, example recordings of oocytes expressing A654T lurcher-mutant RatGluD2 (RatGluD2Lc) in response to indicated AMPA iGluR antagonists and D-serine. Dashed line, zero current baseline. Right panel, % inhibition at different oocytes (dots) and resulting means (columns).

WT RatGluD2 = molecular target: T4, WT RatGluD2 (Rattus norvegicus, UniProt Q63226); assay: Two-electrode voltage clamp in oocytes; type: cell-based; details: n = 4
T4 construct: expressed in transfected cells; host or cells: Xenopus laevis oocytes injected with mRNA
T4 sequence (Q63226 24-1007): T3 sequence (Q63226 24-1007 A654T) with T631A

T2 sequence (Q63226 24-1007 Y613F/A654T/A686S/K694R/N720P/D753Q/N763K/Q786M/R787V/P806D): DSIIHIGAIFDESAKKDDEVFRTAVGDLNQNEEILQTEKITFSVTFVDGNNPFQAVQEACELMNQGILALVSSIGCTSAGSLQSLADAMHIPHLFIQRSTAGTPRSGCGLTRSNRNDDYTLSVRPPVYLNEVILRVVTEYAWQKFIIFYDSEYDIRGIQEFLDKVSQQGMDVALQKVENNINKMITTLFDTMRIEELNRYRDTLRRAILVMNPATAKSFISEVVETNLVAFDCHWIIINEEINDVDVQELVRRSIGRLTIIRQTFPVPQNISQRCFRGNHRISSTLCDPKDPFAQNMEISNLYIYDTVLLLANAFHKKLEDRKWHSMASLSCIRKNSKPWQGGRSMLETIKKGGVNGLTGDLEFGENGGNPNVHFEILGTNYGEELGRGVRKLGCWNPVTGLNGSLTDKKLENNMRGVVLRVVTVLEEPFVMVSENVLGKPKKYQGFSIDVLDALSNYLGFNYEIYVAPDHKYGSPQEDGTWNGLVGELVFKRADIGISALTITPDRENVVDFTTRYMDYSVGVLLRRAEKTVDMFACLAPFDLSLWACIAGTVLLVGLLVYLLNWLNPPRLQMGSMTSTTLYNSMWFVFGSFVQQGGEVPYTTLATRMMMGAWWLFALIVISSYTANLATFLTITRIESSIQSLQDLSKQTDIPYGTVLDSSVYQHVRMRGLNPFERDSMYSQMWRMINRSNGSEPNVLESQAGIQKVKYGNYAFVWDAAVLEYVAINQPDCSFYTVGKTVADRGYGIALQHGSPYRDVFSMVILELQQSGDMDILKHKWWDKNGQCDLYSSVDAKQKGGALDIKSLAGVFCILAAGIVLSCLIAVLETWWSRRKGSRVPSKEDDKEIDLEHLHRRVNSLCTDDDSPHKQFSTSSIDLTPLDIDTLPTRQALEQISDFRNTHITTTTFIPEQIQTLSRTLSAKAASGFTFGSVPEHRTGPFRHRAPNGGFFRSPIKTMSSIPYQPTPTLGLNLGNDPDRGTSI
Chain of RatGluA2 AMPA receptors (P19491 22-883 isoform P19491-2 limits assumed): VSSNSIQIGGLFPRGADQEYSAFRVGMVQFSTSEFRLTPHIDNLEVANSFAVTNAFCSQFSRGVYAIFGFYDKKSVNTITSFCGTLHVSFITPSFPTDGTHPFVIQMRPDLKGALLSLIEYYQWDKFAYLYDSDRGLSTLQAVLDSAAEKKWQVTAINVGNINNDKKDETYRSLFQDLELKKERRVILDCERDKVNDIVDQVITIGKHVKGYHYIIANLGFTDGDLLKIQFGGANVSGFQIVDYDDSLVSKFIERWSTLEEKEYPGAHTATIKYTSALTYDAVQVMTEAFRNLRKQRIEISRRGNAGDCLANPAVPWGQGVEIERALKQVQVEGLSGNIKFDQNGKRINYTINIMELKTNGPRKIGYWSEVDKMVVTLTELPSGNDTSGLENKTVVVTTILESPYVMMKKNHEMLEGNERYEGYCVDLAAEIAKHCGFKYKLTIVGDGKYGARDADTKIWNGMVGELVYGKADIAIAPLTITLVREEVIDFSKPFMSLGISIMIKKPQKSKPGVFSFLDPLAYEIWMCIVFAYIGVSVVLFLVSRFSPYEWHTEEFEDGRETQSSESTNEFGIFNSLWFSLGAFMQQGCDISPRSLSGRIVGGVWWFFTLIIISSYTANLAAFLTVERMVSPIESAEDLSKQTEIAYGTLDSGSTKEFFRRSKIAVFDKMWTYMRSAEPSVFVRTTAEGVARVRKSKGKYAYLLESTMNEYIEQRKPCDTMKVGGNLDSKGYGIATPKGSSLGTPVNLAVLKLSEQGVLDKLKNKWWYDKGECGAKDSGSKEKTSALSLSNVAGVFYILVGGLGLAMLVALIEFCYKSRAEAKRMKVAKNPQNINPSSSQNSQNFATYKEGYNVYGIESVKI
Chain of RatGluA2 AMPA receptors (Q9Y698 whole entry partner): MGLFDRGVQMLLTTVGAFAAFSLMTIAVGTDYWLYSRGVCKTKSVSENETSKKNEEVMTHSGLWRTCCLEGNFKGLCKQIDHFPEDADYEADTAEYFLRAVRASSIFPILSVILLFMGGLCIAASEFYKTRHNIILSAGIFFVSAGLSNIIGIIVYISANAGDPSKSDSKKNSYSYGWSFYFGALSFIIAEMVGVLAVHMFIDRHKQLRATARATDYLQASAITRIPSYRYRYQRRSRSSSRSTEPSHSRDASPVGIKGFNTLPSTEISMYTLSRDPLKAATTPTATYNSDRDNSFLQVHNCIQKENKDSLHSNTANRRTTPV

Compound | inhibition of constitutive currents (RatGluD2^Lc) | currents elicited when applied alone (AcaGluD; 100 μM) | inhibition of GABA-gated current (AcaGluD; 100 μM) | enhancement of glutamate-gated currents (AcaGluD; 100 μM, n = 5) | effect on oocytes expressing WT RatGluD2 (WT RatGluD2) | further results
N=C(N)c1ccc(OCCCCCOc2ccc(C(=N)N)cc2)cc1 [pentamidine] | – | – | – | – | – | inhibition at 100 µM (AcaGluD; 100 μM, n = 5, read-out: block of GABA-gated current): 68 ± 5%; inhibition at 100 µM (AcaGluD; 100 µM, n = 7, read-out: block of glutamate-gated current): 78 ± 2%; inhibition at 100 µM (RatGluA2 AMPA receptors): 37 ± 3%; effect on glycine-gated currents (RatGluD2^Lc^-9x): inhibited
Concanavalin A | – | – | – | – | – | increase in activity (GABA-gated current) after treatment (S713A AcaGluD): > 100 fold; increase in current amplitude after treatment (D825P AcaGluD): fourfold increase; increase in activity (GABA-gated current) after treatment (F640Y AcaGluD): > 100 fold; increase in activity (GABA-gated current) after treatment (R721K AcaGluD): > 100 fold
O=[N+]([O-])c1cc2nc(O)c(O)nc2cc1[N+](=O)[O-] [DNQX] | 11 ± 0.2% | elicited no currents | 53 ± 3% | 34 ± 3% | no effect | –
NS(=O)(=O)c1cccc2c1c([N+](=O)[O-])cc1nc(O)c(O)nc12 [NBQX] | 9 ± 0.2% | elicited no currents | 61 ± 3% | 34 ± 3% | no effect | –
